This note sets out measurements from patent US20260174875A1 (Novo Nordisk A/S, priority 2023, published 2026).

Where two headings read alike, the source gives them in different places. Numbered stars: 1 amine (or outer) side, 2 acyl side, 3 side chain; on linkers, the order of the positions; unused ones are H or OH. Square brackets hold non-standard residues; d marks the D form. Side chains are listed from the residue outwards. * marks the point of attachment. C20 diacid = O=C(O)CCCCCCCCCCCCCCCCCCC(=O)*; C18 diacid = O=C(O)CCCCCCCCCCCCCCCCC(=O)*; C16 diacid = O=C(O)CCCCCCCCCCCCCCC(=O)*; γGlu = O=C(O)[C@H](CCC(=O)[*:2])N[*:1]; AEEA = NCCOCCOCC(=O)O; Aib = CC(C)(N)C(=O)O

For assay [1], the system named is Male Sprague Dawley (SD) rats. Briefly: Efficacy testing on appetite: acute food intake in ad libitum fed normal weight rats. The assay is classed as in vivo, rat. Particulars: for Food intake (relative to vehicle) Day 1: day 1 [0-24 hours]; for Food intake (relative to vehicle) Day 2: day 2 [24-48 hours]; for Food intake (relative to vehicle) Day 3: day 3 [48-72 hours]. The source says: Male Sprague Dawley (SD) rats from Taconic, Denmark were used for the acute food intake experiments, wherein the principles of laboratory animal care were followed.
The rats arrived at least 10-14 days before the start of the experiment to allow acclimatization to experimental settings. During this period, the animals were handled (fixation by restrain in neck skin) at least 2 times. Immediately upon arrival, rats were changed to a reversed light cycle (dark from 11 am-11 pm) and were transferred to an automated food intake measuring system (HM2 system, MBRose; Faaborg, Denmark). […] To enable recording of individual food intake, rats were ID chipped. Three rats were housed in each cage. During the acclimatization period, in which the rats get used to the new light cycle and diet (LF 10% (D12450B), from Research Diets Inc.), the animals had free access to food and water. Since rats are normally active and consume most of their daily calories during the dark period, rats were dosed in the morning right before lights were turned off. Such a set-up results in the lowest data variation and highest test sensitivity. […] In each cage there were animals from three different treatment groups (to eliminate potential cage effects (e.g. cage malfunction) on primary readout: food intake). The rats were dosed once subcutaneously (s.c.) with the peptide of interest according to body weight (10 or 30 nmol/kg) in vehicle (0.5 ml/kg) using a NovoPen® (Novo Nordisk, Bagsvæed, Denmark).
The compounds of the invention were formulated (20 or 60 nmol/ml) in the following vehicle: 8 mM phosphate; 250 mM glycerol; 0.007% polysorbate 20, pH 7.4.
After dosing, the rats were returned to their home cages, where they continued to have ad libitum access to chow and water. The food consumption was recorded individually and continuously by the HM2 system from 0-72 h after test compound administration. Data obtained by the HM-2 system were stored in a HMBase SQL database (Firebird® relational database management system) and were processed by HM2Lab software (MBRose; Faaborg, Denmark) installed in an embedded computer. The feeding system is a highly sensitive system with a load resolution of 0.001 g.

Assay [2] deals with T1, human amylin receptor (hAMYR3) (Homo sapiens, UniProt O60896+P30988).
T1 construct: host or cells: BHK cells (Hollex-1 line expressing hCTR(a) and CRE-Luc), further transfected with human RAMP3
T1 sequence (P30988 25-474): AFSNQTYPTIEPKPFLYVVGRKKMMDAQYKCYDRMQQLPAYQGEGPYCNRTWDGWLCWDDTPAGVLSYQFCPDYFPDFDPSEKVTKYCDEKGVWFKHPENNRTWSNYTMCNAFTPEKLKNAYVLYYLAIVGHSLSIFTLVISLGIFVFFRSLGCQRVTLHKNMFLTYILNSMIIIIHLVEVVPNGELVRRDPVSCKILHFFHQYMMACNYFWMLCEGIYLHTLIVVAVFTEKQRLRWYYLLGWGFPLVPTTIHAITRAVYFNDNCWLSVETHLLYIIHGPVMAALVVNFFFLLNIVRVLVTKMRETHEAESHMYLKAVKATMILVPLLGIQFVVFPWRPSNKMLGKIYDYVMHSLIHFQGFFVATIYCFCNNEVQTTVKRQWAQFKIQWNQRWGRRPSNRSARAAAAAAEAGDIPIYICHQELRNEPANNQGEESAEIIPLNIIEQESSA
T1 sequence (O60896 24-148): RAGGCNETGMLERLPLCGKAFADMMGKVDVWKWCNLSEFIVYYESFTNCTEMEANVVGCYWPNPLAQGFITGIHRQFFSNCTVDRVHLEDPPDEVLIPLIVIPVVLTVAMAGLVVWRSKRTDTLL
Briefly: Amylin receptor assay, method A (CRE-luciferase reporter, BHK cells). The assay is classed as cell-based. (In general: In a reporter assay the amount or activity of a reporter protein is the signal.)

Setting [3] is: hAMYR3 Potency, 1% HSA, EC50, method A, in the presence of 1% HSA.
The mark [4] stands for this setting: method A, absence of HSA, read-out: hAMYR3 Potency, no HSA, EC50.

A word on the EC50: it is the concentration needed to bring the measured effect to its halfway point. For the substance “H[Aib]HGTFTSDYSILLEEQAAREFIEWLLAGGPSK([AEEA-AEEA-γGlu-C16 diacid])GAPPPSGGGEASHLSTAQTARLSAELHRLADLPRTETGSGSP-NH2 [Compound 61]”, in assay [1] (single dose 10 nmol/kg), the “Food intake (relative to vehicle) Day 1” value is on record as −86%, the “Food intake (relative to vehicle) Day 2” value is listed as −92% and the “Food intake (relative to vehicle) Day 3” value is given as −34%. Also, in assay [2] (setting [3]), the EC50 was found to be 0.0307 nM. Also, the EC50 in assay [2] (hAMYR3 Potency, no HSA, EC50, method A, absence of HSA) is 0.00297 nM.

As to “H[Aib]HGTFTSDYSILLEEQAAREFIEWLLAGGPSSGAGQAPGQAPLASHLSTAQTQRLSAELHK([AEEA-AEEA-γGlu-C18 diacid])LATLPRTETGSGSP-NH2 [Compound 93]”, in assay [1] (single dose 10 nmol/kg), the “Food intake (relative to vehicle) Day 1” value was −94%, the “Food intake (relative to vehicle) Day 2” value was −61% and the “Food intake (relative to vehicle) Day 3” value is reported as −25%. The EC50 in assay [2] (setting [3]) stood at 0.0664 nM. In addition, the EC50 in assay [2] (setting [4]) stood at 0.00223 nM.

As for “H[Aib]HGTFTSDYSILLEEQAAREFIEWLLAGGPSSGAGQAPGQAPGASHLSTAQTQRLSAELHRLK([AEEA-AEEA-γGlu-C18 diacid])TLPRTETGSGSP-NH2 [Compound 91]”, in assay [1] (single dose 10 nmol/kg), the “Food intake (relative to vehicle) Day 1” value is −96%, the “Food intake (relative to vehicle) Day 2” value is recorded as −84% and the “Food intake (relative to vehicle) Day 3” value is reported as −33%. Moreover, the EC50 in assay [2] (setting [3]) worked out at 0.0288 nM. Besides, the EC50 in assay [2] (setting [4]) was determined as 0.00226 nM.

“H[Aib]HGTFTSDYSILLEEQAAREFIEWLLAGGPSSGEASHLSTAQTQRLSAK([AEEA-AEEA-γGlu-C18 diacid])LHRLATLPRTETGSGSP-NH2 [Compound 82]”: in assay [1] (single dose 10 nmol/kg), the “Food intake (relative to vehicle) Day 1” value is listed as −94%, the “Food intake (relative to vehicle) Day 2” value is given as −73% and the “Food intake (relative to vehicle) Day 3” value is −27%. In assay [2] (setting [3]), the EC50 was determined as 0.038 nM. The EC50 in assay [2] (setting [4]) was found to be 0.00326 nM.

On to “H[Aib]HGTFTSDYSILLEEQAAREFIEWLLAGGPSK([AEEA-AEEA-γGlu-C20 diacid])GAPPPSGGGEASELSTAALGRLSAELHELATLPRTETGSGSP-NH2 [Compound 16]”, for which the “Food intake (relative to vehicle) Day 1” value is reported as −17% in assay [1] (single dose 10 nmol/kg) and −39% in assay [1] (single dose 30 nmol/kg). The “Food intake (relative to vehicle) Day 2” value in assay [1] (single dose 10 nmol/kg) is −11%; in assay [1] (single dose 30 nmol/kg), −22%. Besides, the “Food intake (relative to vehicle) Day 3” value in assay [1] (single dose 10 nmol/kg) was −10%; in assay [1] (single dose 30 nmol/kg), −17%. In addition, the EC50 amounted to 0.166 nM in assay [2] (setting [3]) and 0.0057 nM in assay [2] (setting [4]).

With “Y[Aib]EGTFTSDYSILLEEQAAREFIEWLLAGGPSSGEASHLSTAQTQRLSAELHK([AEEA-AEEA-γGlu-C18 diacid])LATLPRTETGSGSP-NH2 [Compound 50]”, in assay [1] (single dose 10 nmol/kg), the “Food intake (relative to vehicle) Day 1” value is −54%, the “Food intake (relative to vehicle) Day 2” value is recorded as −60% and the “Food intake (relative to vehicle) Day 3” value is recorded as −21%. In assay [2] (setting [3]), the EC50 turned out to be 0.185 nM. For the same substance, the EC50 in assay [2] (setting [4]) came to 0.0032 nM.

Turning to “Y[Aib]EGTFTSDYSILLEEQAAREFIEWLLAGGPSSGEASHLSTAQTQRLSAELHRLK([AEEA-AEEA-γGlu-C18 diacid])TLPRTETGSGSP-NH2 [Compound 80]”, in assay [1] (single dose 10 nmol/kg), the “Food intake (relative to vehicle) Day 1” value was −84%, the “Food intake (relative to vehicle) Day 2” value is recorded as −78% and the “Food intake (relative to vehicle) Day 3” value is −23%. Further, the EC50 in assay [2] (setting [3]) came out at 0.0624 nM. For the same substance, the EC50 in assay [2] (setting [4]) worked out at 0.00323 nM.

For “H[Aib]HGTFTSDYSILLEEQAAREFIEWLLAGGPSK([AEEA-AEEA-γGlu-C18 diacid])GAPPPSGGGGASELSTAALGRLSAELHRLATLPRTETGSGSP-NH2 [Compound 14]”, in assay [1] (single dose 10 nmol/kg), the “Food intake (relative to vehicle) Day 1” value is −78%, the “Food intake (relative to vehicle) Day 2” value is −85% and the “Food intake (relative to vehicle) Day 3” value is listed as −32%. Besides, the EC50 in assay [2] (setting [3]) was determined as 0.0334 nM. Besides, the EC50 in assay [2] (setting [4]) was determined as 0.00221 nM.

Consider “Y[Aib]EGTFTSDYSILLEEQAAREFIEWLLAGGPSSGAGQAPGQAPGASHLSTAALGRLSAELHK([AEEA-AEEA-γGlu-C18 diacid])LATLPRTETGSGSP-NH2 [Compound 53]”, for which, in assay [1] (single dose 10 nmol/kg), the “Food intake (relative to vehicle) Day 1” value is −75%, the “Food intake (relative to vehicle) Day 2” value was −90% and the “Food intake (relative to vehicle) Day 3” value is recorded as −33%. Moreover, in assay [2] (setting [3]), the EC50 was determined as 0.0759 nM. Further, the EC50 in assay [2] (setting [4]) came to 0.00322 nM.

“H[Aib]HGTFTSDYSILLEEQAAREFIEWLLAGGPSSGEASHLSTAALGRLSAELHRLK([AEEA-AEEA-γGlu-C18 diacid])TLPRTETGSGSP-NH2 [Compound 89]”: in assay [1] (single dose 10 nmol/kg), the “Food intake (relative to vehicle) Day 1” value is on record as −93%, the “Food intake (relative to vehicle) Day 2” value is reported as −78% and the “Food intake (relative to vehicle) Day 3” value is −28%. Besides, the EC50 in assay [2] (setting [3]) is 0.0397 nM. In addition, the EC50 in assay [2] (setting [4]) was found to be 0.00312 nM.

Turning to “H[Aib]HGTFTSDYSILLEEQAAREFIEWLLAGGPSSGAGQAPGQAPGASHLSTAQTQRLSAK([AEEA-AEEA-γGlu-C18 diacid])LHRLATLPRTETGSGSP-NH2 [Compound 78]”, in assay [1] (single dose 10 nmol/kg), the “Food intake (relative to vehicle) Day 1” value is on record as −96%, the “Food intake (relative to vehicle) Day 2” value is recorded as −57% and the “Food intake (relative to vehicle) Day 3” value was −3%. In assay [2] (setting [3]), the 50% effective concentration (EC50) was found to be 0.0171 nM. Besides, the EC50 in assay [2] (setting [4]) is 0.00183 nM.

Consider “H[Aib]HGTFTSDYSILLEEQAAREFIEWLLAGGPSK([AEEA-AEEA-γGlu-C16 diacid])GEASELSTAALGRLSAELHRLATLPRTETGSGSP-NH2 [Compound 17]”, for which, in assay [1] (single dose 10 nmol/kg), the “Food intake (relative to vehicle) Day 1” value was −84%, the “Food intake (relative to vehicle) Day 2” value is given as −78% and the “Food intake (relative to vehicle) Day 3” value was −11%. Moreover, the EC50 in assay [2] (setting [3]) amounted to 0.0336 nM. Further, the EC50 in assay [2] (setting [4]) stood at 0.00513 nM.

As for “Y[Aib]EGTFTSDYSILLEEQAAREFIEWLLAGGPSK([AEEA-AEEA-γGlu-C18 diacid])GEASELSTAALGRLSAELHELATLPRTETGSGSP-NH2 [Compound 26]”, in assay [1] (single dose 30 nmol/kg), the “Food intake (relative to vehicle) Day 1” value was −11%, the “Food intake (relative to vehicle) Day 2” value is reported as −18% and the “Food intake (relative to vehicle) Day 3” value is 0%. Besides, the EC50 in assay [2] (setting [3]) came to 0.349 nM. Besides, the EC50 in assay [2] (setting [4]) came out at 0.0118 nM.

On to “Y[Aib]EGTFTSDYSILLEEQAAREFIEWLLAGGPSSGAGQAPGQAPGASHLSTAQTQRLSAELHRLATLPK([AEEA-AEEA-γGlu-C18 diacid])TETGSGSP-NH2 [Compound 57]”, for which, in assay [1] (single dose 10 nmol/kg), the “Food intake (relative to vehicle) Day 1” value is −75%, the “Food intake (relative to vehicle) Day 2” value is listed as −88% and the “Food intake (relative to vehicle) Day 3” value was −14%. Further, the EC50 in assay [2] (setting [3]) was determined as 0.085 nM. In addition, in assay [2] (setting [4]), the EC50 is 0.003 nM.

Consider “H[Aib]HGTFTSDYSILLEEQAAREFIEWLLAGGPSK([AEEA-AEEA-γGlu-C18 diacid])GAPPPSGGGEASELSTAALGRLSAELHELATLPRTETGSGSP-NH2 [Compound 15]”, for which, in assay [1] (single dose 10 nmol/kg), the “Food intake (relative to vehicle) Day 1” value is recorded as −30%, the “Food intake (relative to vehicle) Day 2” value was −42% and the “Food intake (relative to vehicle) Day 3” value is −9%. Further, in assay [2] (setting [3]), the EC50 worked out at 0.0822 nM. The EC50 in assay [2] (setting [4]) turned out to be 0.00501 nM.

With “Y[Aib]EGTFTSDYSILLEEQAAREFIEWLLAGGPSSGAPPPSGGGEASHLSTAQTQRLSAK([AEEA-AEEA-γGlu-C20 diacid])LHRLATLPRTETGSGSP-NH2 [Compound 110]”, in assay [1] (single dose 10 nmol/kg), the “Food intake (relative to vehicle) Day 1” value is reported as −75%, the “Food intake (relative to vehicle) Day 2” value was −54% and the “Food intake (relative to vehicle) Day 3” value was −23%. The EC50 in assay [2] (setting [3]) stood at 0.094 nM. The EC50 in assay [2] (setting [4]) amounted to 0.00327 nM.
